Values after ≈ are worked out from the molar mass of the structure shown. Active and inactive are the calls of the source. The calls are words filed in the database; no cut-off is given here.
Assays:
[1] = system: HepG2; assay: Cytotoxicity against human HepG2 cells measured after 72 hrs by MTT assay; format: functional, cell-based; details: HepG2, 72 h
[2] = system: Staphylococcus aureus; assay: Antibacterial activity against Methicillin-resistant Staphylococcus aureus ATCC 43300 infected in ICR mouse thigh infection model assessed as survival rate at 7.5 mg/kg, ip measured after 24 hrs post-treatment relative to control; format: functional
[3] = Stability in mouse plasma assessed as parent compound remaining at 5 ug/ml measured after 240 mins by LC-MS/MS analysis; format: ADME, cell-free; details: at 5 µg/mL, read-out: Stability
[4] = system: Staphylococcus aureus; assay: Antibacterial activity against Staphylococcus aureus ATCC 29213 incubated for 16 to 18 hrs by CLSI based broth dilution method; format: functional; details: time 16-18 hrs
[5] = system: Escherichia coli; assay: Antibacterial activity against Escherichia coli ATCC 25922 incubated for 16 to 18 hrs in absence of human plasma by CLSI based broth dilution method; format: functional; details: time 16-18 hrs
[6] = Stability in mouse plasma assessed as parent compound remaining at 1 ug/ml measured after 10 mins by LC-MS/MS analysis; format: ADME, cell-free; details: at 1 µg/mL, read-out: Stability
[7] = Metabolic stability in mouse liver microsomes assessed as half life at 1 uM measured upto 60 mins in presence of NADPH by LC-MS/MS analysis; format: ADME, Microsome
[8] = Stability in mouse plasma assessed as parent compound remaining at 1 ug/ml measured after 1440 mins by LC-MS/MS analysis; format: ADME, cell-free; details: at 1 µg/mL, read-out: Stability
[9] = system: Staphylococcus epidermidis; assay: Antibacterial activity against Staphylococcus epidermidis ATCC 12228 incubated for 16 to 18 hrs by CLSI based broth dilution method; format: functional; details: time 16-18 hrs
[10] = system: Escherichia coli; assay: Antibacterial activity against Escherichia coli ATCC 25922 incubated for 16 to 18 hrs in presence of human plasma by CLSI based broth dilution method; format: functional; details: time 16-18 hrs
[11] = Half life in ICR mouse at 10 mg/kg, ip measured after 5 to 24 hrs post administration by LC-MS/MS analysis; format: ADME, organism-based; details: in vivo, time 5-24 hrs
[12] = Stability in mouse plasma assessed as parent compound remaining at 5 ug/ml measured after 1440 mins by LC-MS/MS analysis; format: ADME, cell-free; details: at 5 µg/mL, read-out: Stability
[13] = Toxicity in ICR mouse assessed as median lethal dose administered as single IP dose measured upto 8 days; details: in vivo, time < 8 day
[14] = Stability in mouse plasma assessed as parent compound remaining at 1 ug/ml measured after 30 mins by LC-MS/MS analysis; format: ADME, cell-free; details: at 1 µg/mL, read-out: Stability
[15] = system: Staphylococcus aureus; assay: Drug resistance against methicillin-resistant Staphylococcus aureus ATCC 43300 assessed as increase in MIC measured after 10 passaging for 24 hrs; format: functional, organism-based
[16] = Stability in mouse plasma assessed as parent compound remaining at 5 ug/ml measured after 20 mins by LC-MS/MS analysis; format: ADME, cell-free; details: at 5 µg/mL, read-out: Stability
[17] = Stability in mouse plasma assessed as parent compound remaining at 1 ug/ml measured after 60 mins by LC-MS/MS analysis; format: ADME, cell-free; details: at 1 µg/mL, read-out: Stability
[18] = Metabolic stability in mouse liver microsomes assessed as hepatic clearance at 1 uM measured upto 60 mins in presence of NADPH by LC-MS/MS analysis; format: ADME, Microsome; details: 1 h
[19] = system: HCT-116; assay: Cytotoxicity against human HCT-116 cells measured after 72 hrs by MTT assay; format: functional, cell-based; details: HCT-116, 72 h
[20] = Stability in mouse plasma assessed as parent compound remaining at 5 ug/ml measured after 30 mins by LC-MS/MS analysis; format: ADME, cell-free; details: at 5 µg/mL, read-out: Stability
[21] = Metabolic stability in mouse liver microsomes assessed as intrinsic clearance at 1 uM measured upto 60 mins in presence of NADPH by LC-MS/MS analysis; format: ADME, Microsome; details: read-out: CLH
[22] = system: Staphylococcus aureus; assay: Antibacterial activity against Methicillin-resistant Staphylococcus aureus ATCC 43300 infected in ip dosed ICR mouse thigh infection model assessed as reduction in bacterial growth measured after 24 hrs post-treatment; format: functional, organism-based; details: dose lower 7.5 mg/kg, dose upper […]
[23] = system: Staphylococcus aureus; assay: Antibacterial activity against Staphylococcus aureus ATCC 29213 incubated for 16 to 18 hrs in absence of human plasma by CLSI based broth dilution method; format: functional; details: time 16-18 hrs
[24] = Stability in mouse plasma assessed as parent compound remaining at 1 ug/ml measured after 20 mins by LC-MS/MS analysis; format: ADME, cell-free; details: at 1 µg/mL, read-out: Stability
[25] = system: Staphylococcus aureus; assay: Antibacterial activity against methicillin-resistant Staphylococcus aureus ATCC 43300 assessed as inhibition of bacterial growth at upto 8 times MIC measured upto 28 hrs by time kill curve assay; format: functional, organism-based
[26] = AUC (0 to infinity) in ICR mouse at 10 mg/kg, ip measured after 5 to 24 hrs post administration by LC-MS/MS analysis; format: ADME, organism-based; parameters: time upper 24 hrs, dose 10 mg/kg, time lower 5 hrs, route ip; details: in vivo
[27] = Stability in mouse plasma assessed as parent compound remaining at 1 ug/ml measured after 120 mins by LC-MS/MS analysis; format: ADME, cell-free; details: at 1 µg/mL, read-out: Stability
[28] = system: MCF7; assay: Cytotoxicity against human MCF7 cells measured after 72 hrs by MTT assay; format: functional, cell-based; details: MCF7, 72 h
[29] = Stability in mouse plasma assessed as parent compound remaining at 1 ug/ml measured after 45 mins by LC-MS/MS analysis; format: ADME, cell-free; details: at 1 µg/mL, read-out: Stability
[30] = system: Escherichia coli; assay: Antibacterial activity against Escherichia coli ATCC 25922 incubated for 16 to 18 hrs by CLSI based broth dilution method; format: functional; details: time 16-18 hrs
[31] = AUC (0 to t) in ICR mouse at 10 mg/kg, ip measured after 5 to 24 hrs post administration by LC-MS/MS analysis; format: ADME, organism-based; parameters: time 5-24 hrs, dose 10 mg/kg, route ip; details: in vivo
[32] = system: Staphylococcus aureus; assay: Antibacterial activity against methicillin-resistant Staphylococcus aureus ATCC 43300 incubated for 16 to 18 hrs in presence of human plasma by CLSI based broth dilution method; format: functional; details: time 16-18 hrs
[33] = system: Escherichia coli; assay: Antibacterial activity against Escherichia coli ATCC 25922 assessed as inhibition of bacterial growth at upto 8 times MIC measured upto 28 hrs by time kill curve assay; format: functional, organism-based
[34] = system: Enterococcus faecalis; assay: Antibacterial activity against Enterococcus faecalis ATCC 29212 incubated for 16 to 18 hrs by CLSI based broth dilution method; format: functional; details: time 16-18 hrs
[35] = system: Staphylococcus aureus; assay: Antibacterial activity against Staphylococcus aureus ATCC 29213 incubated for 16 to 18 hrs in presence of human plasma by CLSI based broth dilution method; format: functional; details: time 16-18 hrs
[36] = system: Staphylococcus aureus; assay: Antibacterial activity against Methicillin-resistant Staphylococcus aureus ATCC 43300 infected in ICR mouse thigh infection model assessed as survival rate at 15 mg/kg, ip measured after 24 hrs post-treatment relative to control; format: functional
[37] = Stability in mouse plasma assessed as parent compound remaining at 5 ug/ml measured after 120 mins by LC-MS/MS analysis; format: ADME, cell-free; details: at 5 µg/mL, read-out: Stability
[38] = system: HGC-27; assay: Cytotoxicity against human HGC-27 cells measured after 72 hrs by MTT assay; format: functional, cell-based; details: HGC-27, 72 h
[39] = Stability in mouse plasma assessed as parent compound remaining at 5 ug/ml measured after 60 mins by LC-MS/MS analysis; format: ADME, cell-free; details: at 5 µg/mL, read-out: Stability
[40] = Toxicity in ip dosed ICR mouse assessed as animal death at high dose measured upto 8 days; format: organism-based; details: in vivo, 192 h, time < 8 day
[41] = Stability in mouse plasma assessed as parent compound remaining at 1 ug/ml measured after 240 mins by LC-MS/MS analysis; format: ADME, cell-free; details: at 1 µg/mL, read-out: Stability
[42] = Stability in mouse plasma assessed as parent compound remaining at 5 ug/ml measured after 45 mins by LC-MS/MS analysis; format: ADME, cell-free; details: at 5 µg/mL, read-out: Stability
[43] = system: Acinetobacter baumannii; assay: Antibacterial activity against Acinetobacter baumannii ATCC 19606 incubated for 16 to 18 hrs by CLSI based broth dilution method; format: functional; details: time 16-18 hrs
[44] = system: Staphylococcus aureus; assay: Antibacterial activity against methicillin-resistant Staphylococcus aureus ATCC 43300 incubated for 16 to 18 hrs in absence of human plasma by CLSI based broth dilution method; format: functional; details: time 16-18 hrs
[45] = system: Staphylococcus aureus; assay: Antibacterial activity against methicillin-resistant Staphylococcus aureus ATCC 43300 incubated for 16 to 18 hrs by CLSI based broth dilution method; format: functional; details: time 16-18 hrs
[46] = Stability in mouse plasma assessed as parent compound remaining at 5 ug/ml measured after 10 mins by LC-MS/MS analysis; format: ADME, cell-free; details: at 5 µg/mL, read-out: Stability

Nc1nc(N)c2c(ccc3c2ccn3Cc2ccc3scnc3c2)n1
IC50 [1]: 120 nM | survival at 7.5 mg/kg [2]: 50% | remaining at 4 h, 5 ug/ml [3]: 95.2% | MIC [4]: 0.125 µg/mL (≈ 0.361 µM) | MIC [5]: 0.06 µg/mL (≈ 0.173 µM) | remaining at 10 min, 1 ug/ml [6]: 96.2% | half-life at 1 µM [7]: 0.203 h | remaining at 24 h, 1 ug/ml [8]: 92.3% | MIC [9]: ≤ 0.004 µg/mL | MIC [10]: 0.125 µg/mL | half-life [11]: 2.82 h | remaining at 24 h, 5 ug/ml [12]: 95.5% | LD50 at 192 h [13]: 283 mg/kg | remaining at 0.5 h, 1 ug/ml [14]: 93.8% | Activity [15]: Active | remaining at 20 min, 5 ug/ml [16]: 96% | remaining at 1 h, 1 ug/ml [17]: 92.4% | CLH [18]: 74.9 mL/min/kg | IC50 [19]: 5 nM | remaining at 0.5 h, 5 ug/ml [20]: 95.8% | microsomal CLint at 1 µM [21]: 114 µL/min/mg | Activity [22]: Active | MIC [23]: 0.03 µg/mL (≈ 0.0866 µM) | remaining at 20 min, 1 ug/ml [24]: 94.7% | Activity [25]: Active | AUC [26]: 367.6 ng·h/mL | remaining at 2 h, 1 ug/ml [27]: 92.5% | IC50 [28]: 580 nM | remaining at 0.75 h, 1 ug/ml [29]: 93.1% | MIC [30]: 0.06 µg/mL (≈ 0.173 µM) | AUCt [31]: 2280.12 ng·h/mL | MIC [32]: 0.5 µg/mL | Activity [33]: Active | MIC [34]: 0.03 µg/mL (≈ 0.0866 µM) | MIC [35]: 0.5 µg/mL | survival at 15 mg/kg [36]: 66% | remaining at 2 h, 5 ug/ml [37]: 95.5% | IC50 [38]: 1 nM | remaining at 1 h, 5 ug/ml [39]: 95.4% | Activity [40]: Toxic | remaining at 4 h, 1 ug/ml [41]: 92.6% | remaining at 0.75 h, 5 ug/ml [42]: 95.2% | MIC [43]: 1 µg/mL (≈ 2.89 µM) | MIC [44]: 0.016 µg/mL (≈ 0.0462 µM) | MIC [45]: 0.016 µg/mL (≈ 0.0462 µM) | remaining at 10 min, 5 ug/ml [46]: 96.7%
